Data from US20250049819A1, “METHODS FOR TREATING AND PREVENTING C. DIFFICILE INFECTION” (Paratek Pharmaceuticals, Inc., priority 2016, published 2025).
≈ marks a conversion by molar mass, not a printed value. Entries after “also recorded” stand apart in the source; their conditions may differ. Read-outs that look alike come from different tables or passages of the source.

Columns and labels:
[1] = tested on: C. difficile strain ATCC 43596; assay: MIC90 against the infection model strain; assay type: cell-based
[2] = tested on: C. difficile strains (N = 27); assay: MIC by broth microdilution against C. difficile clinical isolates; assay type: cell-based; set-up: Broth Microdilution Range (Minimum Inhibitory Concentration): unit not given here; conditions: 27 isolates; for MIC50 / MIC90: Clostridioides difficile
Protocol: (§1) The activity of omadacycline was tested in vitro against 27 clinical isolates of C. difficile. […] The experiments were carried out using broth and agar microdilution methods according to Clinical and Laboratory Standards Institute (CLSI) guidelines. […] Each test was run in duplicate.

[3] = tested on: C. difficile and gut microbiota; conditions: published gut model studies; cited from earlier work
[4] = tested on: C. difficile strain ATCC 43596; assay: Hamster model of C. difficile-associated diarrhea, survival; assay type: in vivo
[5] = tested on: C. difficile PCR ribotype 027 strain 210; assay: In vitro human gut model, C. difficile germination, proliferation and toxin production (Example 4); assay type: cell-based
Protocol: (§2) The gut model was inoculated with pooled fecal slurry (5 volunteers ≥60 years of age with no history of antibiotic therapy in the previous 3 months) and left for 2 weeks to allow the bacterial populations to achieve steady state. A single inoculum (˜10^7 cfu/mL) of C. difficile spores (PCR ribotype 027 strain 210) was added into vessel 1 of the gut model on day 14. One week later, on day 21, a second aliquot of C. difficile spores was added, and antibiotic instillation commenced. Model A (LHS) was exposed to moxifloxacin (43 mg/L, once daily, for 7 days) and Model B (RHS) was exposed to omadacycline (430 mg/L, once daily, for 7 days) commenced on day 21.
(§3) Bacterial populations in the gut model were monitored using selective agars to count viable bacterial colonies. Populations were monitored every other day for the first 2 weeks until the steady state was reached, and daily thereafter. C. difficile populations were monitored in all three vessels, and all other bacterial groups (total obligate anaerobes, total facultative anaerobes, lactose fermenting Enterobacteriaceae, Enterococci, total Clostridia, Lactobacilli, Bifidobacteria and B. fragilis group) were monitored in vessels 2 and 3 only. Vessel 3, which represents the distal colon, is of most physiological relevance in terms of propensity to induce CDI. C. difficile total viable counts and spores counts were monitored using viable counting and a differential alcohol shock viable count on selective agars. From day 14 onwards C. difficile cytotoxin was measured using a quantitative VERO cell cytotoxicity assay. Samples of 1 mL each were centrifuged at 16,000×g for 15 minutes, and the supernatants were removed. Six 1:10 serial dilutions (to 10^−6) of culture supernatants from the gut model were prepared. Twenty microliters of the appropriate dilution was added to VERO cell monolayers and a further 20 μL of C. sordellii antitoxin (diluted 1:10 in sterile distilled water) was placed in the corresponding antitoxin row. Monolayers were examined after 24 and 48 hours of incubation in 5% CO2, with a positive result indicated by the presence of cell rounding with concurrent neutralization of the effect by C. sordellii antitoxin. Cytotoxin titers (relative units, RU) were an arbitrary log10 scale, and the cytotoxin titer is reported in the highest dilution with >70% cell rounding, i.e. 10^0=1 RU, 10^−1=2 RU, 10^−2=3 RU. Samples were taken daily from day 21 onwards to determine antimicrobial concentrations in the gut model vessels by a bioassay. Concentrations of moxifloxacin were determined using Isosensitest agar with Escherichia coli as the indicator organism. Concentrations of omadacyline were determined using Wilkins Chalgren agar with Kocuria rhizophila as the indicator organism.

[6] = tested on: gut microflora populations; assay: In vitro human gut model, gut microflora populations (Example 4); assay type: cell-based
Protocol: as §2, §3

[7] = tested on: C. difficile strains (N = 27); assay: MIC by agar dilution against C. difficile clinical isolates; assay type: cell-based; conditions: 27 isolates
Protocol: as §1

[8] = Clostridioides difficile, ATCC43596, replicate plate A, read-out: MIC90 Plate A
[9] = Clostridioides difficile, ATCC43596, replicate plate B, read-out: MIC90 Plate B
[10] = Wilkins-Chalgren broth, 48 hours anaerobic
[11] = Wilkins-Chalgren broth, 48 hours anaerobic, read-out: Broth Microdilution MIC90
[12] = Clostridioides difficile, ATCC43596, read-out: MIC90
[13] = oral 50 mg/kg/day for 5 days, N=10
[14] = vessel 1, 43 mg/L once daily for 7 days
[15] = vessel 2 and vessel 3, 43 mg/L once daily for 7 days
[16] = vessels 2 and 3, once daily for 7 days

Compound: CCC[C@@H]1C[C@@H](C(=O)N[C@@H]([C@H]2O[C@H](SC)[C@H](O)[C@@H](O)[C@H]2O)[C@H](C)Cl)N(C)C1 [Clindamycin]
- MIC90 [1]: no activity
- MIC90 [1, 8]: > 32 µg/mL
- MIC90 [1, 9]: > 32 µg/mL
- MIC50 [2, 10]: 4000 µg/mL (≈ 9410 µM)
- MIC90 [2, 11]: > 16000 µg/mL

Compound: piperacillin-tazobactam
- induction of simulated CDI (C. difficile germination and toxin production) in the gut model [3]: do not promote C. difficile germination and toxin production; also recorded: have not induced simulated CDI in the gut model

Compound: CO/N=C(\C(=O)N[C@@H]1C(=O)N2C(C(=O)O)=C(COC(C)=O)CS[C@H]12)c1csc(N)n1 [Cefotaxime]
- MIC50 [2, 10]: 64000 µg/mL (≈ 141000 µM)

Compound: CN[C@H](CC(C)C)C(=O)N[C@H]1C(=O)N[C@@H](CC(N)=O)C(=O)N[C@H]2C(=O)N[C@H]3C(=O)N[C@H](C(=O)N[C@H](C(=O)O)c4cc(O)cc(O)c4-c4cc3ccc4O)[C@H](O)c3ccc(c(Cl)c3)Oc3cc2cc(c3O[C@@H]2O[C@H](CO)[C@@H](O)[C@H](O)[C@H]2O[C@H]2C[C@](C)(N)[C@H](O)[C@H](C)O2)Oc2ccc(cc2Cl)[C@H]1O [Vancomycin]
- MIC90 [1, 12]: 0.06 µg/mL (≈ 0.0414 µM)
- MIC90 [1, 8]: 0.06 µg/mL (≈ 0.0414 µM)
- MIC90 [1, 9]: 0.06 µg/mL (≈ 0.0414 µM)
- Median Survival ([4]; hamster, in vivo): 2 days
- percent survival at day 2 post infection ([4]; hamster, in vivo): 40%
- percent survival by day 11 [4, 13]: 30%
- survival by day 14 [4, 13]: all animals succumbed to the infection

Compound: COc1c(N2C[C@@H]3CCCN[C@@H]3C2)c(F)cc2c(=O)c(C(=O)O)cn(C3CC3)c12 [Moxifloxacin]
- C. difficile toxin detection (VERO cell cytotoxicity assay) ([5]; all vessels): toxin detected in all three vessels
- day by which toxin was undetectable in all vessels ([5]; all vessels): ≤ 42 days
- signs of simulated CDI ([5]; once daily for 7 days, omadacycline 430 mg/L, moxifloxacin 43 mg/L): induced simulated CDI
- peak C. difficile cytotoxin titer, vessel 1 [5, 14]: 2 relative units
- peak C. difficile total viable counts, vessel 1 [5, 14]: ~4.5 log10 cfu/mL
- peak C. difficile cytotoxin titer, vessel 2 and vessel 3 [5, 15]: 3 relative units
- peak C. difficile total viable counts, vessel 2 and vessel 3 [5, 15]: ~6 log10 cfu/mL
- time for all populations to return to pre-antibiotic levels following end of antibiotic exposure ([6]; all populations): ~1 week
- decline in B. fragilis group populations, vessel 2 ([6]; vessel 2, 43 mg/L once daily for 7 days): ~8 log10 cfu/mL
- decline in B. fragilis group populations, vessel 3 ([6]; vessel 3, 43 mg/L once daily for 7 days): ~4 log10 cfu/mL
- decline in Enterococcus spp. / Enterococci populations [6, 16]: ~4 log10 cfu/mL
- decline in Lactobacilli [6, 16]: ~3 log10 cfu/mL

Compound: CN(C)c1cc(NC(=O)CNC(C)(C)C)c(O)c2c1C[C@H]1C[C@H]3[C@H](N(C)C)C(O)=C(C(N)=O)C(=O)[C@@]3(O)C(O)=C1C2=O [Tigecycline]
- MIC90 ([1]; Clostridioides difficile, ATCC43596): 0.06 µg/mL (≈ 0.102 µM)
- MIC90 ([1]; Clostridioides difficile, ATCC43596, read-out: MIC90 Plate A): 0.06 µg/mL (≈ 0.102 µM)
- MIC90 ([1]; Clostridioides difficile, ATCC43596, read-out: MIC90 Plate B): 0.06 µg/mL (≈ 0.102 µM)
- induction of simulated CDI (C. difficile germination and toxin production) in the gut model [3]: do not promote C. difficile germination and toxin production; also recorded: have not induced simulated CDI in the gut model

Compound: amoxicillin clavulanate
- Agar Microdilution MIC50 ([7]; agar dilution): 50 µg/mL
- Agar Microdilution MIC90 ([7]; agar dilution): 1000 µg/mL
- Agar Microdilution Range (Minimum Inhibitory Concentration) ([7]; agar dilution): 0.25-1
- Broth Microdilution MIC50 [2, 10]: 250 µg/mL
- Broth Microdilution MIC90 [2, 10]: 500 µg/mL
- Broth Microdilution Range (Minimum Inhibitory Concentration) [2, 10]: 0.12-0.5

Compound: Cc1ncc([N+](=O)[O-])n1CCO [Metronidazole]
- MIC90 [1, 12]: 0.06 µg/mL (≈ 0.351 µM)
- MIC90 [1, 8]: 0.06 µg/mL (≈ 0.351 µM)
- MIC90 [1, 9]: 0.06 µg/mL (≈ 0.351 µM)
- Agar Microdilution Range (Minimum Inhibitory Concentration) ([7]; agar dilution): 0.06 to 0.5 mg/mL
- MIC50 [2, 10]: 120 µg/mL (≈ 701 µM)
- MIC90 [2, 11]: 500 µg/mL (≈ 2920 µM)

Compound: C[C@H]1c2cccc(O)c2C(=O)C2=C(O)[C@]3(O)C(=O)C(C(N)=O)=C(O)[C@@H](N(C)C)[C@@H]3[C@@H](O)[C@@H]21 [Doxycycline]
- MIC90 ([7]; Clostridioides difficile): 1 µg/mL (≈ 2.25 µM)
- MIC90 ([2]; read-out: MIC90 by broth dilution): 0.5 µg/mL (≈ 1.13 µM)
- MIC50 [2, 10]: 30 µg/mL (≈ 67.5 µM)
- MIC90 [2, 11]: 500 µg/mL (≈ 1130 µM)

Compound: C[C@@H](O)[C@H]1C(=O)N2C(C(=O)O)=C(SCCN=CN)C[C@H]12 [Imipenem]
- MIC50 [2, 10]: 4000 µg/mL (≈ 13400 µM)
- MIC90 [2, 11]: 8000 µg/mL (≈ 26700 µM)
